Experiments:
T-cell (T-4 and T-8) = test: Measurement of cytokine (IL-2) by Elispot, T cell activity; type: cell-based, mouse; conditions: FIG. 1: Compound 3 1 μg/ml
Experimental: Elispot bioassay ([…] enzyme-linked immunospot assay) is a very sensitive quantification assay for detecting cytokine bound to the membrane because the bottom of each well of Elispot plates used in this assay was pre-coated with a cytokine specific antibody. Thus, Elispot assay was performed to measure the T cell activity. […] Each sample was tested in duplicate. Counting the number of IL-2 producing cells by Elispot is accomplished with Elispot reader (AID Elispot Reader System).

dendritic cells = test: Expression of adhesion molecules of dendritic cells (RT-PCR); type: cell-based, Balb/c AnN mice; conditions: 1 μg/ml, compared to control
Experimental: Bone marrow cells were obtained from the femurs and tibias of Balb/c AnN mice (Park, J. et al. (2003) J. Korean Med. Sci., 18: 372-380). The cells were washed 3 times in RPMI, and then mononuclear cells were obtained. These mononuclear cells were allowed to adhere to tissue culture flask 3 hours in RPMI and 10% FBS. After incubation, the adherent cells (monocytes) were removed and non-adherent cells were placed in 100 mm tissue culture dishes, in a concentration of 1×10^5 cells/ml in RPMI plus 10% FBS supplemented with 20 ng/ml murine rGM-CSF (R & D systems, Minneapolis, Minn., USA), 10 ng/ml, murine IL-4 (R&D systems), and 2.5 ng/ml murine TNF-α (R & D systems). Culture dishes were fed every 3 days. Murine TNF-α (R & D systems) was added at the 6th day of the culture. After that, murine TNF-α (R & D systems) was added every 3 days until on the 11th day. Mature dendritic cells were harvested for RT-PCR of adhesion molecule studies. […]
Total RNA separated from dendritic cells and MS-5, low density cells cultured with oligo(dt)-primer, was reverse-transcribed, and PCR was performed at 94° C. for 30 seconds, 65° C. for 30 seconds and 72° C. for 50 seconds. […] For the quantification, PCR with GAPDH was performed to confirm the corresponding cDNA.

B16F10 cells = test: Melanoma model in mice; type: in vivo, C57BL/6 mice; conditions: Compound 3 50 mg/kg/day P.O.
Experimental: 6 week female C57BL/6 mice (provided from Asan Institute for Life Sciences Animal Lab., Seoul, Korea) were housed in specific pathogen free unit.
B16F10 cells (2×10^4) suspended in 100 μl of RPMI 1640 serum-free medium were intravenously injected via tail vein. One week before tumor cell injection, the following 3 groups were treated.
2) Dendritic cells (DC) (5×10^5 cells/day)+tumor lysate treated group
In the case of DC+tumor lysate treated group, one week before melanoma injection, 5×10^5 DC cells mixed with tumor lysate were injected to the abdominal cavity every 1 weeks. […] As a result, gross findings at 4th week control group observed multiple metastatic lesions in both lungs.

KIGB-5 cells = test: Biliary cancer model in hamster, Compound 3 dose groups; type: in vivo, Syrian golden hamsters; conditions: for gross findings, tumor: 4th week
Experimental: In another hand, six week old female Syrian golden hamsters were housed in specific pathogen free unit. KIGB-5 cells (5×10^5) suspended in 100 μl of RPMI 1640 serum-free medium were intravenously injected via femoral vein. […] Animals of each group were sacrificed at 4, 8, 12 weeks for pathological examination. […] At 8th week, control group observed multiple metastatic lesions in both lungs.

Q: How did the “increased T-4 activity comparing to control group (IL-2 Elispot spots)” value (T-cell (T-4 and T-8); T-4 cells) turn out when `CCCCC/C=C\C/C=C\CCCCCCCC(=O)OC(COC(C)=O)COC(=O)CCCCCCCCCCCCCCC` (stereo not drawn) [Compound 3] was run?
A: 1.52 folds

Q: And the “increased T-8 activity comparing to control group (IL-2 Elispot spots)” value (T-cell (T-4 and T-8); T-8 cells)?
A: 1.46 folds

Q: And the “expressions of adhesion molecules Icam-2, VLA-5, LFA-1” value (dendritic cells)?
A: significantly increased

Q: And the “gross findings, metastatic lesions in the lung” value (B16F10 cells; 4th week after B16F10 i.v. injection)?
A: no evidence of disease in the lung

Q: What about the Survival rate (B16F10 cells; observation for 6 weeks after melanoma (B16F10) injection) of the same compound?
A: 90%

Q: And the “gross findings, tumor” value (KIGB-5 cells; 10 mg/kg/day P.O.)?
A: no evidence of tumor

Q: What about the “gross findings, tumor” value (KIGB-5 cells; 25 mg/kg/day P.O.) of the same compound?
A: no evidence of tumor

Q: And the “gross findings, tumor” value (KIGB-5 cells; 50 mg/kg/day P.O.)?
A: no evidence of tumor

Q: And the metastatic lung lesions (KIGB-5 cells; 8th week, 10 mg/kg/day P.O.)?
A: showed tumor in the left lung

Q: And the “metastatic lung lesions with microscope” value (KIGB-5 cells; 8th week, 25 mg/kg/day P.O.)?
A: showed one minute lesion with microscope

Q: And the “metastatic lung lesions with naked eye” value (KIGB-5 cells; 8th week, 25 mg/kg/day P.O.)?
A: did not show any metastatic lung lesions with naked eye

Q: What about the “metastatic lung lesions with naked eye” value (KIGB-5 cells; 8th week, 50 mg/kg/day P.O.) of the same compound?
A: did not show any metastatic lung lesions with naked eye

— US7662853B2, “Monoacetyldiacylglycerol derivative for the treatment of sepsis” (priority 2004, dated 2010)
